Test results published in ChEMBL document CHEMBL1909046, “DrugMatrix in vitro pharmacology data”.

Columns and labels:
[1] = target: T1, Alpha-2C adrenergic receptor (Homo sapiens, UniProt P18825); experiment: DRUGMATRIX: Adrenergic Alpha-2C radioligand binding (ligand: [3H] MK-912); format: cell membranes, Sf9, Membrane; settings: sf9
T1 sequence (P18825 whole entry): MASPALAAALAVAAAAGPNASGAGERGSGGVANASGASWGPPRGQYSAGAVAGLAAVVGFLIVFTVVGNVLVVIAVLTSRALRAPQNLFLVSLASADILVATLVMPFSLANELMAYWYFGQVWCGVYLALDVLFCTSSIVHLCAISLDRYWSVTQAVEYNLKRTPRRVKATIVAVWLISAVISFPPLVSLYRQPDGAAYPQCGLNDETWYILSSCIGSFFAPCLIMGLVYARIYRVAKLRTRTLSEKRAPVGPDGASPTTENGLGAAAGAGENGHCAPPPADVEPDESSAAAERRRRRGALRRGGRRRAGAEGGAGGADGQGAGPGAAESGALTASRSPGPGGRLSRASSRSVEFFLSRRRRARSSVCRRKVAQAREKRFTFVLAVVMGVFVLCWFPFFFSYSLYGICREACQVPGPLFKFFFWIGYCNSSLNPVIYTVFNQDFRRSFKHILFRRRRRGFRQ

[2] = target: Beta-2 adrenergic receptor (Homo sapiens, UniProt P07550); experiment: DRUGMATRIX: Adrenergic beta2 radioligand binding (ligand: [3H] CGP-12177); format: cell membranes, Membrane; settings: cho; Not Active = under 50% inhibition at 10 µM
[3] = target: 5-hydroxytryptamine receptor 6 (Homo sapiens, UniProt P50406); format: cell membranes, HeLa, Membrane; settings: hela; note: in other assays of this panel Not Active means under 50% inhibition at 10 µM
[4] = target: T2, C-C chemokine receptor type 4 (Homo sapiens, UniProt P51679); format: cell membranes, Chem-1, Membrane; settings: chem-1; note: in other assays of this panel Not Active means under 50% inhibition at 10 µM
T2 sequence (P51679 whole entry): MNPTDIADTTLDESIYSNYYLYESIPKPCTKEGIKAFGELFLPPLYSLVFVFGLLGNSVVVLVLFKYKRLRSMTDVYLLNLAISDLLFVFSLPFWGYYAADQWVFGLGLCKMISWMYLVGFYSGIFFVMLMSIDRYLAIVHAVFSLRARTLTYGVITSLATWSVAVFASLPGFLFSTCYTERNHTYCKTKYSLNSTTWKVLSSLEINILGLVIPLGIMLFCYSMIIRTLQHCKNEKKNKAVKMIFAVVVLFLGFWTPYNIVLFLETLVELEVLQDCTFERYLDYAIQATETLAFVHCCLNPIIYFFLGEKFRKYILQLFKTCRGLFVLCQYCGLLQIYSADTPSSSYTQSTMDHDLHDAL

[5] = target: T3, Cholecystokinin receptor type A (Homo sapiens, UniProt P32238); format: cell membranes, Membrane; settings: 1321-n1; note: in other assays of this panel Not Active means under 50% inhibition at 10 µM
T3 sequence (P32238 whole entry): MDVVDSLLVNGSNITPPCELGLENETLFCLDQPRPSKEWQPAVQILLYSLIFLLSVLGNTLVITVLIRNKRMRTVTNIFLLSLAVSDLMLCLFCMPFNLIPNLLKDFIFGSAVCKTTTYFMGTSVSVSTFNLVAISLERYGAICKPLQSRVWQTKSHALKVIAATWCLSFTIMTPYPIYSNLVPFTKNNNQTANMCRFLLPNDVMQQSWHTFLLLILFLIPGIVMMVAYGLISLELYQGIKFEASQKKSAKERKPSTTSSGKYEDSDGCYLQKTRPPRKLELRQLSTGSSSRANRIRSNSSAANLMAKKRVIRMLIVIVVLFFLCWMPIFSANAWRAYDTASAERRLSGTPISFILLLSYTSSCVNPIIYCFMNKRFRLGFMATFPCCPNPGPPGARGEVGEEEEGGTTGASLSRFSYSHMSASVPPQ

[6] = target: Platelet-activating factor receptor (Homo sapiens, UniProt P25105); format: tissue-based; note: in other assays of this panel Not Active means under 50% inhibition at 10 µM

Measured: IC50

Sequence of Beta-2 adrenergic receptor (P07550 whole entry): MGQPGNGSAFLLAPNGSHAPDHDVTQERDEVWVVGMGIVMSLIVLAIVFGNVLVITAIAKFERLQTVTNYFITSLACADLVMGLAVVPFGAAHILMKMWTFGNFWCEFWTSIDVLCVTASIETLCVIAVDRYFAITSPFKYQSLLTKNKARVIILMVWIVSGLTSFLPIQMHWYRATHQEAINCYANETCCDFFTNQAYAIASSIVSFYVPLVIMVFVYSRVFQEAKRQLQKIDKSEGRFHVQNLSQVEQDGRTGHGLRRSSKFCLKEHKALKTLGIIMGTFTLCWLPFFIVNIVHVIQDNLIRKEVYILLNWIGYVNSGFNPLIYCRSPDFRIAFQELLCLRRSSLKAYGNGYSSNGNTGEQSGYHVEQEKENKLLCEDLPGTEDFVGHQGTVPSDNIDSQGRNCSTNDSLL
Sequence of Platelet-activating factor receptor (P25105 whole entry): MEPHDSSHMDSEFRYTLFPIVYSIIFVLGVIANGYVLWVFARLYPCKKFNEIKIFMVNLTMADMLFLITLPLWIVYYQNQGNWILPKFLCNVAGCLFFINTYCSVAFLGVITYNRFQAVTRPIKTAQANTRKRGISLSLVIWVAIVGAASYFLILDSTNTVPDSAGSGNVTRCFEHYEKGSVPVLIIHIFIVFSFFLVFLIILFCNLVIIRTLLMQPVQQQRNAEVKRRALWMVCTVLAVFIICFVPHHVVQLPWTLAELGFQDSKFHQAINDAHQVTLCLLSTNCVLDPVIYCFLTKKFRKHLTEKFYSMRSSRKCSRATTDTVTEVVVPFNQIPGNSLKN
Sequence of 5-hydroxytryptamine receptor 6 (P50406 whole entry): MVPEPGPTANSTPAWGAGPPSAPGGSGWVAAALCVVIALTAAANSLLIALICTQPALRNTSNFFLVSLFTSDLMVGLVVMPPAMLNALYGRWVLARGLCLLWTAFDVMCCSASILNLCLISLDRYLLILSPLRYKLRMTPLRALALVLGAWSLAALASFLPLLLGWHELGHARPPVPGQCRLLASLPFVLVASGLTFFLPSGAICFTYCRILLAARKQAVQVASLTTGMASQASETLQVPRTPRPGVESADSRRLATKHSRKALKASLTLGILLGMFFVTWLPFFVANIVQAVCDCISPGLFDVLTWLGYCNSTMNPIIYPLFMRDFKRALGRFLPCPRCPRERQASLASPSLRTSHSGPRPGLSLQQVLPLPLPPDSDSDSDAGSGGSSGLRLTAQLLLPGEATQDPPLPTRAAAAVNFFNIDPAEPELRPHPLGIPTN

Nc1nc2c(ncn2COCCO)c(=O)[nH]1 [ACYCLOVIR]
Not Active: all assays above

NCCCCCC(=O)O [AMINOCAPROIC ACID]
Not Active: all assays above

CCC1(c2ccc(N)cc2)CCC(=O)NC1=O (stereo not given) [AMINOGLUTETHIMIDE]
Not Active: all assays above

Nc1ncn([C@@H]2O[C@H](CO)[C@@H](O)[C@H]2O)c(=O)n1 [AZACITIDINE]
Not Active: all assays above

CNCCc1ccccn1 [BETAHISTINE]
Not Active: all assays above

Cc1ccc(-c2cc(C(F)(F)F)nn2-c2ccc(S(N)(=O)=O)cc2)cc1 [CELECOXIB]
Not Active: all assays above

O=C(O)CCCc1ccc(N(CCCl)CCCl)cc1 [CHLORAMBUCIL]
Not Active: all assays above

C[C@H](CCC(=O)O)[C@H]1CC[C@H]2[C@@H]3[C@H](O)C[C@@H]4C[C@H](O)CC[C@]4(C)[C@H]3C[C@H](O)[C@]12C [CHOLIC ACID]
Not Active: all assays above

CC(C)(Oc1ccc(Cl)cc1)C(=O)O [CLOFIBRIC ACID]
Not Active: all assays above

Clc1cccc(Cl)c1NC1=NCCN1 [CLONIDINE]
Not Active: all assays above

CNCCCN1c2ccccc2CCc2ccccc21 [DESIPRAMINE]
not listed: [2]
Not Active: all other assays above

CC(=O)O[C@@]12CO[C@@H]1C[C@H](O)[C@@]1(C)C(=O)[C@H](O)C3=C(C)[C@@H](OC(=O)[C@H](O)[C@@H](NC(=O)OC(C)(C)C)c4ccccc4)C[C@@](O)([C@@H](OC(=O)c4ccccc4)[C@H]21)C3(C)C.O.O.O [DOCETAXEL]
Not Active: all assays above

C[C@H]1c2cccc(O)c2C(=O)C2=C(O)[C@]3(O)C(=O)C(C(N)=O)=C(O)[C@@H](N(C)C)[C@@H]3[C@@H](O)[C@@H]21.O [DOXYCYCLINE]
Not Active: all assays above

C[C@]12CC[C@@H]3c4ccc(O)cc4CC[C@H]3[C@@H]1CCC2=O [ESTRONE]
Not Active: all assays above

N=C(N)NCCN1CCCCCCC1 [GUANETHIDINE]
Not Active: all assays above

Nc1nc(N)nc(-c2cc(Cl)ccc2Cl)n1.O=C(O)/C=C\C(=O)O [IRSOGLADINE MALEATE]
Not Active: all assays above
